For 2 compounds, EC50 and Ki results are on record in publication PMC10600239, “Selective MCL-1 inhibitor ABBV-467 is efficacious in tumor models but is associated with cardiac troponin increases in patients” (Communications Medicine, 2023).

The structures appear in SMILES notation. Where “and” joins values, the source holds several entries; their conditions need not be identical. Equal values may be shown once. Read-outs that look alike come from different tables or passages of the source.

One experiment concerns AMO-1 cells. The experiment is described as follows: In vitro cell viability assay (CellTiter-Glo). Type of experiment: cell-based, human. The note with it: Homo sapiens. As to the method:
(§1) All cell lines were grown and treated in RPMI 1640 or Dulbecco’s modified Eagle medium (Sigma, St. Louis, MO) supplemented with 10% fetal bovine serum (Gibco) or 10% human serum (Sigma) and maintained in a humidified incubator at 5% CO2 and 37 °C. DLD-1, MV4-11, NCI-H929 (all ATCC, Manassas, VA, USA) and AMO-1 (DSMZ, Braunschweig, Germany) cells were plated 4000 cells per well in 384-well tissue culture plates and treated with compounds of interest for 24 h at 37 °C, 5% CO2 humidified incubator. Each concentration was tested in duplicate at least 3 separate times. Adherent cells were allowed to adhere overnight prior to treatment. Alternatively, AMO-1 or NCI-H929 cells were treated with ABBV-467 for the indicated contact times (1–24 h) at 37 °C in a 5% CO2 humidified incubator and washed 3 times with compound-free media prior to incubation for the remainder of a 24-h treatment period. Cell viability was subsequently determined using CellTiter-Glo (Promega, Madison, WI, USA) according to the manufacturer’s instructions.
(§2) For in vitro viability assays, mean EC50 and EC90 values were determined from the resulting dose-response curves from at least 3 independent experiments, and depict the mean ± standard error of the mean.
(§3) Fig. 2 Apoptosis induced by ABBV-467 is mechanism based and induces cell death in MCL-1-dependent cell lines after short target engagement periods. H929 cells were treated with ABBV-467 in the presence or absence of the pan-caspase inhibitor z-VAD-fmk (50 µM) and the impact on caspase-3/7 activation (a), mitochondrial membrane potential (ΔΨm; b), and apoptosis (c) determined. Alternatively, BAK-deficient SKBR3 cells were treated with ABBV-467 for 24 h and the impact on cell viability compared with the parental cell line, determined by CellTiter-Glo. Inset depicts a western blot of BAK and BAX expression in SKBR3 cell variants using GAPDH as a loading control. Each of the 3 proteins were probed on separate blots (d). Data in (a–d) are presented as the mean ± standard error of the mean. H929 and AMO-1 cells were treated with ABBV-467 at the indicated concentrations and the impact on caspase-3/7 activation and viability (DRAQ7-positive) cells determined over time by Incucyte®. Data are presented as the mean ± standard deviation (e). H929 or AMO-1 cells were cultured in media containing 10% human serum and treated with ABBV-467 for the indicated contact times. Cells were subsequently washed 3 times with drug-free media and incubated in drug-free media for the remainder of the 24-h treatment period at 37 °C before cell viability was determined by CellTiter-Glo. Mean EC50 and EC90 values were determined from the resulting dose-response curves from at least 3 independent experiments, each assessed in quadruplicate, and depict the mean ± standard error of the mean. Presented ABBV-467 dose-response curves in H929 and AMO-1 cells were compiled from at least 3 independent experiments (f).

A further experiment addresses BCL-XL (Homo sapiens, UniProt Q07817). The experiment is described as follows: Time-resolved FRET binding assay. How it is done:
(§4) Binding affinities for MCL-1, BCL-2, BCL-XL, BCL-W, and BCL2-A1 were determined using a time-resolved fluorescence resonance energy transfer (FRET) assay. Test compounds were serially diluted in DMSO starting at […] (20× starting concentration; 100% DMSO followed by a 1:10 dilution of the compound DMSO plate into assay buffer); 10 µL of the compound in 10% DMSO was then transferred into a 384-well plate (low-volume Corning #3673 assay plate). Glutathione S-transferase (GST)-tagged recombinant BCL-2, BCL-XL, MCL-1, BCL-W, or BCL2-A1 protein (1 nM each) were mixed with 100 nM Oregon Green™-labeled f-BAK peptide probe and 1 nM Tb-labeled anti-GST antibody were mixed. Then 10 µL of a 2× protein/probe/antibody mix was added to each well of increasing concentrations of test compound in assay buffer (20 mM potassium phosphate, pH 7.6, 50 mM NaCl, 1 mM ethylenediaminetetraacetic acid disodium salt dihydrate, 0.05% pluronic acid F-68, 1 mM DL-dithiothreitol) at room temperature (final concentrations listed in Supplementary Table S2). The samples were then mixed on a shaker for 1 min and incubated for an additional 1 h at room temperature. For each assay plate, a probe/antibody and protein/antibody/probe mixture were included as a negative and a positive control, respectively. Fluorescence was measured on the EnVision™ (Perkin Elmer) using a 340/35-nm excitation filter and 520/525- (F-Bak) and 495/510-nm (Tb-labeled anti-glutathione S-transferase [GST] antibody) emission filters. Dissociation constants were determined using Wang’s equation[35]. The time-resolved FRET assay can be performed in the presence of varying concentrations of human serum to determine apparent half-maximal inhibitory concentration after serum protein binding.

A further experiment deals with BCL-2 (Homo sapiens, UniProt P10415). The experiment is described as follows: Time-resolved FRET binding assay. As to the method: as §4
For another experiment, the target named is T1, BCL-W (Homo sapiens, UniProt Q92843).
T1 sequence (Q92843 1-193): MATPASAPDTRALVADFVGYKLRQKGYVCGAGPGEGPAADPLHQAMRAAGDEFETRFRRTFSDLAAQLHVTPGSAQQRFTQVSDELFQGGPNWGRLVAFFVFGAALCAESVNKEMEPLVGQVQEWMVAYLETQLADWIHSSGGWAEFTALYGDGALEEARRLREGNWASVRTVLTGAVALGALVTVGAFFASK
The experiment is described as follows: Time-resolved FRET binding assay. As to the method:
as §4

The target of the next experiment is T2, BCL2-A1 (Homo sapiens, UniProt Q16548).
T2 sequence (Q16548 1-175): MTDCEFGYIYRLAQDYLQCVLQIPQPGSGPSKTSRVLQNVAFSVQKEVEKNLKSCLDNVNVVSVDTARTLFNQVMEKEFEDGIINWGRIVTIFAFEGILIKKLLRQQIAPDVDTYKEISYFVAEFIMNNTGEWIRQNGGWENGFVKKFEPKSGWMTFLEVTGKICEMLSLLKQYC
The experiment is described as follows: Time-resolved FRET binding assay. How it is done:
as §4

A further experiment relates to H929 cells. The experiment is described as follows: In vitro cell viability assay (CellTiter-Glo). The experiment is classed as cell-based, human. The note with it: Homo sapiens. As to the method:
as §1, §2, §3

The test system of a further experiment is MV4-11 cells. The experiment is described as follows: In vitro cell viability assay (CellTiter-Glo). Type of experiment: cell-based, human. The following applies: Homo sapiens. How it is done:
as §1, §2

A further experiment has as its system DLD-1 cells. The experiment is described as follows: In vitro cell viability assay (CellTiter-Glo). Type of experiment: cell-based, human. As to the method: as §1, §2
For the next experiment, the target named is human MCL-1 (Homo sapiens, UniProt Q07820). The experiment is described as follows: Time-resolved FRET binding assay. As to the method:
as §4, with “Test” for “Binding affinities for MCL-1, BCL-2, BCL-XL, BCL-W, and BCL2-A1 were determined using a time-resolved fluorescence resonance energy transfer (FRET) assay. Test”

[1] abbreviates: TR-FRET, arithmetic mean, read-out: Arithmetic Mean Ki, BCL-XL.
Setting [2] is: TR-FRET, individual determinations, read-out: Individual Ki, BCL-XL.
The mark [3] stands for this setting: read-out: TR-FRET, Ki, nM BCL-XL.
Setting [4] is: TR-FRET, arithmetic mean, read-out: Arithmetic Mean Ki, BCL-2.
The mark [5] stands for this setting: TR-FRET, individual determinations, read-out: Individual Ki, BCL-2.
The mark [6] stands for this setting: read-out: TR-FRET, Ki, nM BCL-2.

BCL-XL, sequence (Q07817 whole entry): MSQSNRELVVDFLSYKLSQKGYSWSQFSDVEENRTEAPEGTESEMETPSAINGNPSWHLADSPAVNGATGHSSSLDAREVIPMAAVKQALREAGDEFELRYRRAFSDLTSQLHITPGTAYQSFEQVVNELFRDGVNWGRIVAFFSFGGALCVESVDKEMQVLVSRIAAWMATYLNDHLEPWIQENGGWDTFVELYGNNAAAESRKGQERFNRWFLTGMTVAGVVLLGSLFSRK
BCL-2, sequence (P10415 whole entry): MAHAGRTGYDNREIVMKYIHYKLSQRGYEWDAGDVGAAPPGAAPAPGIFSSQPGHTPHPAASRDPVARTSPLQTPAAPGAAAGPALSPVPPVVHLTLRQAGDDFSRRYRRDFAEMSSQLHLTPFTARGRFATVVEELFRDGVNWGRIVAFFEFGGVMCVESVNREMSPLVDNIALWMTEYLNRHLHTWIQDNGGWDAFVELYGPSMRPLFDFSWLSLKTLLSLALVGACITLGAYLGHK
human MCL-1, sequence (Q07820 whole entry): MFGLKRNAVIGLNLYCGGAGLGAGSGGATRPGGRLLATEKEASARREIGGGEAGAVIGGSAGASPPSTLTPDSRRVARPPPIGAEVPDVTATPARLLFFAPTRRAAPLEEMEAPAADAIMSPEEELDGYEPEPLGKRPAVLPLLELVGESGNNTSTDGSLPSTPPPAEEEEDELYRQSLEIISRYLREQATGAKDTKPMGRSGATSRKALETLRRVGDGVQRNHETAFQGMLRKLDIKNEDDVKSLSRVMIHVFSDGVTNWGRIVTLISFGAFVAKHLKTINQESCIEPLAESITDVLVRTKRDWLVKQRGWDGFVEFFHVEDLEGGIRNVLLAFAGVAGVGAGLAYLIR

`COc1ccccc1-c1nccc(COc2ccccc2CC(Oc2ncnc3sc(-c4ccc(F)cc4)c(-c4ccc(OCCN5CCN(C)CC5)c(Cl)c4C)c23)C(=O)O)n1` (stereo not shown) [Compound 1, reference compound]: the EC50 with AMO-1 cells (AMO1, 24 h, read-out: AMO-1 EC50 (nM, 10% FBS), 10% FBS, 24 h continuous treatment) is 2.06 nM; in the experiment with AMO-1 cells (AMO1, AMO-1, arithmetic mean, read-out: Arithmetic Mean EC50 µM), 2.06 nM; in the experiment with H929 cells (NCI-H929, 24 h, read-out: H929 EC50 (nM, 10% FBS), 10% FBS, 24 h continuous treatment) it was 4.75 nM; in the experiment on H929 cells (NCI-H929, NCI-H929, arithmetic mean, read-out: Arithmetic Mean EC50 µM), 4.75 nM; in the experiment on MV4-11 cells (MV4-11, 24 h, read-out: MV4-11 EC50 (nM, 10% FBS), 10% FBS, 24 h continuous treatment) it was 10.9 nM; in the experiment on MV4-11 cells (MV4-11, MV4-11, arithmetic mean, read-out: Arithmetic Mean EC50 µM) it was 10.9 nM. Besides, the EC50 in the experiment on DLD-1 cells (DLD-1, individual determinations, listed as MIK665, read-out: Individual EC50) is > 1000 nM and > 10000 nM and 4770 nM and 3350 nM and 6620 nM and 4370 nM and 4270 nM and 5810 nM and 4060 nM; in the experiment with DLD-1 cells (Homo sapiens, DLD-1, 24 h, read-out: DLD-1 EC50 (nM, 10% FBS), 10% FBS, 24 h continuous treatment), 4750 nM. Also, the Ki is more than 660 nM on BCL-XL (setting [1]); more than 660 nM on BCL-XL (setting [2]); more than 660 nM on BCL-XL (setting [3]); 599 nM on BCL-2 (setting [4]); 319 nM and 376 nM and 955 nM and 745 nM on BCL-2 (setting [5]); 599 nM on BCL-2 (setting [6]). The Ki at BCL-W (TR-FRET, arithmetic mean, read-out: Arithmetic Mean Ki, BCL-W) is more than 468 nM; on BCL-W (TR-FRET, individual determinations, read-out: Individual Ki, BCL-W), more than 468 nM; on BCL-W (read-out: TR-FRET, Ki, nM BCL-W), more than 468 nM; on BCL2-A1 (TR-FRET, arithmetic mean, read-out: Arithmetic Mean Ki, BCL2-A1) it was more than 468 nM; at BCL2-A1 (TR-FRET, individual determinations, read-out: Individual Ki, BCL2-A1), more than 468 nM; at BCL2-A1 (read-out: TR-FRET, Ki, nM BCL2-A1) it was more than 468 nM.
Turning to `COc1ccccc1-c1nccc(COc2ccc3cc2CC(C(=O)O)Oc2ncnc4sc(-c5ccc(F)cc5)c(c24)-c2ccc(c(Cl)c2C)N(CCN2CCN(C)CC2)C3)n1` (stereo not shown) [Compound 2], the Ki was more than 660 nM at BCL-XL (setting [1]); more than 660 nM on BCL-XL (setting [2]); more than 660 nM at BCL-XL (setting [3]); more than 1200 nM at BCL-2 (setting [4]); more than 1200 nM at BCL-2 (setting [5]); more than 1200 nM at BCL-2 (setting [6]). Also, the Ki on human MCL-1 (TR-FRET, individual determinations, read-out: Individual Ki, MCL1) was 2.48 nM and 5.01 nM and 9.14 nM; at human MCL-1 (read-out: TR-FRET, Ki, nM MCL-1) it was 5.54 nM.
